Data: PubChem BioAssay (NCI)
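Test compounds were applied to cells in 96-well plates for 48 hours at 5 doses. TGI denotes the concentration required for complete inhibition of growth.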

What was measured:
Test in all cases: NCI tumour cell line growth inhibition, 48 h
XF 498 CNS = system: XF 498 CNS
LXFL 529 NSCLC = system: LXFL 529 NSCLC
P388 leukemia = system: P388 leukemia
RXF-631 renal = system: RXF-631 renal
KM20L2 colon = system: KM20L2 colon
HOP-18 NSCLC = system: HOP-18 NSCLC
SN12K1 renal = system: SN12K1 renal
P388/ADR leukemia = system: P388/ADR leukemia
DMS 114 small cell lung = system: DMS 114 small cell lung
SNB-78 CNS = system: SNB-78 CNS

With `COc1ccc2c(c1)CCc1c(CO)c(COC(=O)NC(C)C)n(C)c1-2` the TGI (XF 498 CNS) was > 62.6 µM, the TGI (LXFL 529 NSCLC) was 15.9 µM and the TGI (P388 leukemia) was 3.54 µM. For the same compound, the TGI (RXF-631 renal) was > 100 µM, the TGI (KM20L2 colon) was 35.3 µM and the TGI (HOP-18 NSCLC) was 13.1 µM. It also gave a TGI (SN12K1 renal) of 17.2 µM, a TGI (P388/ADR leukemia) of 6.22 µM and a TGI (DMS 114 small cell lung) of 12.3 µM. The TGI (SNB-78 CNS) was 39.5 µM.
